# From US20260285850A1, “SUBSTITUTED OXAZOLIDINONES AND IMIDAZOLINONES AS HERBICIDES” (FMC CORPORATION, priority 2023, published 2026)
# What was measured:
# Assay type in all cases: in vivo
# soybean (Glycine max) [1] = experiment: Test A preemergence soil spray, visual injury rating 0-100; conditions: 10 days
# How it was run: (§1)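 Seeds sown in loam-sand blend got a preemergence directed soil spray, or emerged plants (2-10 cm, one- to two-leaf) got a postemergence spray, of compound in non-phytotoxic solvent with surfactant. After 10 days in greenhouse, injury rated visually versus untreated controls on a 0 (no effect) to 100 (complete control) scale.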
# [2] = test system: ragweed (common ragweed, Ambrosia artemisiifolia); experiment: as above; conditions: 10 days
# How it was run: as §1
# [3] = test system: green foxtail (Setaria viridis); experiment: as above; conditions: 10 days
# How it was run: as §1
# [4] = test system: barnyardgrass (Echinochloa crus-galli); experiment: as above; conditions: 10 days
# How it was run: as §1
# [5] = test system: ryegrass, Italian (italian ryegrass, Lolium multiflorum); experiment: as above; conditions: 10 days
# How it was run: as §1
# [6] = test system: wheat (Triticum aestivum); experiment: as above; conditions: 10 days
# How it was run: as §1
# kochia (Bassia scoparia) [7] = experiment: as above; conditions: 10 days
# How it was run: as §1
# [8] = test system: blackgrass (Alopecurus myosuroides); experiment: as above; conditions: 10 days
# How it was run: as §1
# [9] = test system: oat, wild (wild oat, Avena fatua); experiment: as above; conditions: 10 days
# How it was run: as §1
# [10] = test system: palmer (palmer amaranth, palmer pigweed, Amaranthus palmeri); experiment: as above; conditions: 10 days
# How it was run: as §1
# corn (Zea mays) [11] = experiment: as above; conditions: 10 days
# How it was run: as §1
# [12] = test system: horseweed (Erigeron canadensis); experiment: Test A postemergence application, visual injury rating 0-100
# How it was run: as §1
# soybean (Glycine max) [13] = experiment: as above
# How it was run: as §1
# [14] = test system: ragweed (common ragweed, Ambrosia artemisiifolia); experiment: as above
# How it was run: as §1
# [15] = test system: green foxtail (Setaria viridis); experiment: as above
# How it was run: as §1
# [16] = test system: barnyardgrass (Echinochloa crus-galli); experiment: as above
# How it was run: as §1
# [17] = test system: ryegrass, Italian (italian ryegrass, Lolium multiflorum); experiment: as above
# How it was run: as §1
# [18] = test system: wheat (Triticum aestivum); experiment: as above
# How it was run: as §1
# kochia (Bassia scoparia) [19] = experiment: as above
# How it was run: as §1
# [20] = test system: blackgrass (Alopecurus myosuroides); experiment: as above
# How it was run: as §1
# [21] = test system: galium (catchweed bedstraw, Galium aparine); experiment: as above
# How it was run: as §1
# [22] = test system: oat, wild (wild oat, Avena fatua); experiment: as above
# How it was run: as §1
# [23] = test system: palmer (palmer amaranth, palmer pigweed, Amaranthus palmeri); experiment: as above
# How it was run: as §1
# corn (Zea mays) [24] = experiment: as above
# How it was run: as §1
# [25] = test system: ducksalad (Heteranthera limosa); experiment: Test B flooded paddy test, visual plant response rating 0-100; conditions: 250 g ai/ha, Flood, applied to paddy water, evaluated after 13 days
# How it was run: (§2)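 Each species was raised to two leaves before flooding to a 3 cm depth and dosing the water with compound. Injury was assessed by eye after 13 days under greenhouse conditions.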
# [26] = test system: sedge, umbrella (small-flower umbrella sedge, Cyperus difformis); experiment: as above; conditions: 250 g ai/ha, Flood, applied to paddy water, evaluated after 13 days
# How it was run: as §2
# [27] = test system: barnyardgrass (Echinochloa crusgalli); experiment: as above; conditions: 250 g ai/ha, Flood, applied to paddy water, evaluated after 13 days
# How it was run: as §2
# rice (Oryza sativa) = experiment: as above; conditions: 250 g ai/ha, Flood, applied to paddy water, evaluated after 13 days
# How it was run: as §2
# [28] = 62 g ai/ha, 0 = no effect, 100 = complete control
# [29] = 62 g ai/ha, postemergence, 10 days, 0 = no effect, 100 = complete control
# [30] = Postemergence, 16 g ai/ha, greenhouse 10 days, 0 no effect, 100 complete control
structure (smiles),measurement,setting,value
"C=CC1(C(=O)NC2C=CC(C(=O)OC)C2)CN(c2cc(F)cc(F)c2)C(=O)O1 (single isomer, unassigned) [Compound 167]",Soybean plant response rating,"soybean (Glycine max) [1]; 16 g ai/ha, 0 to 100 scale",70
same,Soybean plant response rating (0-100),soybean (Glycine max) [1]; [28],80
same,Ragweed plant response rating,"[2]; 16 g ai/ha, 0 to 100 scale",60
same,Ragweed plant response rating (0-100),[2]; [28],90
same,"Foxtail, Green plant response rating","[3]; 16 g ai/ha, 0 to 100 scale",90
same,"Foxtail, Green plant response rating (0-100)",[3]; [28],100
same,Barnyardgrass plant response rating,"[4]; 16 g ai/ha, 0 to 100 scale",60
same,Barnyardgrass plant response rating (0-100),[4]; [28],100
same,"Ryegrass, Italian plant response rating","[5]; 16 g ai/ha, 0 to 100 scale",80
same,"Ryegrass, Italian plant response rating (0-100)",[5]; [28],90
same,Wheat plant response rating,"[6]; 16 g ai/ha, 0 to 100 scale",70
same,Wheat plant response rating (0-100),[6]; [28],90
same,Kochia plant response rating,"kochia (Bassia scoparia) [7]; 16 g ai/ha, 0 to 100 scale",70
same,Kochia plant response rating (0-100),kochia (Bassia scoparia) [7]; [28],100
same,Blackgrass plant response rating,"[8]; 16 g ai/ha, 0 to 100 scale",30
same,Blackgrass plant response rating (0-100),[8]; [28],70
same,"Oat, Wild plant response rating","[9]; 16 g ai/ha, 0 to 100 scale",50
same,"Oat, Wild plant response rating (0-100)",[9]; [28],90
same,"Pigweed, Palmer plant response rating","[10]; 16 g ai/ha, 0 to 100 scale",100
same,"Pigweed, Palmer plant response rating (0-100)",[10]; [28],100
same,Corn plant response rating,"corn (Zea mays) [11]; 16 g ai/ha, 0 to 100 scale",40
same,Corn plant response rating (0-100),corn (Zea mays) [11]; [28],90
same,Horseweed plant response rating (0-100),[12]; [29],80
same,Horseweed plant response rating (0 to 100 scale),[12]; [30],80
same,Soybean plant response rating (0-100),soybean (Glycine max) [13]; [29],80
same,Soybean plant response rating (0 to 100 scale),soybean (Glycine max) [13]; [30],80
same,Ragweed plant response rating (0-100),[14]; [29],80
same,Ragweed plant response rating (0 to 100 scale),[14]; [30],70
same,"Foxtail, Green plant response rating (0-100)",[15]; [29],90
same,"Foxtail, Green plant response rating (0 to 100 scale)",[15]; [30],90
same,Barnyardgrass plant response rating (0-100),[16]; [29],90
same,Barnyardgrass plant response rating (0 to 100 scale),[16]; [30],90
same,"Ryegrass, Italian plant response rating (0-100)",[17]; [29],90
same,"Ryegrass, Italian plant response rating (0 to 100 scale)",[17]; [30],80
same,Wheat plant response rating (0-100),[18]; [29],90
same,Wheat plant response rating (0 to 100 scale),[18]; [30],90
same,Kochia plant response rating (0-100),kochia (Bassia scoparia) [19]; [29],80
same,Kochia plant response rating (0 to 100 scale),kochia (Bassia scoparia) [19]; [30],80
same,Blackgrass plant response rating (0-100),[20]; [29],90
same,Blackgrass plant response rating (0 to 100 scale),[20]; [30],80
same,Galium plant response rating (0-100),[21]; [29],80
same,Galium plant response rating (0 to 100 scale),[21]; [30],80
same,"Oat, Wild plant response rating (0-100)",[22]; [29],90
same,"Oat, Wild plant response rating (0 to 100 scale)",[22]; [30],90
same,"Pigweed, Palmer plant response rating (0-100)",[23]; [29],90
same,"Pigweed, Palmer plant response rating (0 to 100 scale)",[23]; [30],90
same,Corn plant response rating (0-100),corn (Zea mays) [24]; [29],100
same,Corn plant response rating (0 to 100 scale),corn (Zea mays) [24]; [30],100
same,"Plant response rating, Ducksalad (0 to 100 scale, 0 is no effect and 100 is complete control)",[25],98
same,"Plant response rating, Sedge, Umbrella (0 to 100 scale, 0 is no effect and 100 is complete control)",[26],98
same,"Plant response rating, Barnyardgrass (0 to 100 scale, 0 is no effect and 100 is complete control)",[27],90
same,"Plant response rating, Rice (0 to 100 scale, 0 is no effect and 100 is complete control)",rice (Oryza sativa),98
